Read-outs that look alike come from different tables or passages of the source.
What was measured:
[1] = Optical properties of NIR fluorophores in 100% calf serum; assay type: physicochemical; conditions: 100% calf serum supplemented with 50 mM HEPES, pH 7.4
Description: After purification to homogeneity, optical properties of the dyes can be measured in 100% calf serum. Absorbance spectrometry (200 to 870 nm) can be performed using a USB2000 fiber optic spectrometer and CHEM2000-UV-VIS light source with cuvette holder (Ocean Optics, Dunedin, Fla.). Fluorescence spectrometry (200 to 1100 nm) can be performed using a HR2000 fiber optic spectrometer, CUV-ALL-UV 4-way cuvette holder (Ocean Optics), and a 250 mW 770 nm laser diode (Electro Optical Components, Santa Rosa, Calif.). Quantum yield can be measured under conditions of matched absorbance and 770 nm laser excitation, using ICG in DMSO (QY=13%) as the calibration standard.
(§1) Table 2 below summarizes the optical and stability properties of each of these dyes in 100% calf serum (supplemented with 50 mM HEPES, pH 7.4).

[2] = Stability of dyes in 100% calf serum at 37° C.; assay type: in vitro ADME; conditions: 100% calf serum supplemented with 50 mM HEPES, pH 7.4
Procedure: as §1

[3] = In vivo biodistribution and clearance of dyes in rats (FLARE NIR fluorescence imaging); conditions: IV 40 pmol/g (10 nmol)
Procedure: The dyes were injected IV into rats at a dose of 40 pmol/g (10 nmol). […] Excitation fluence rate was 5 mW/cm2. Camera integration time was 200 msec. All NIR fluorescence images have identical normalizations. B 1=bladder. Li=Liver. In=Intestines.

[4] = Renal clearance: recovery of dye in urine samples; assay type: in vivo; conditions: human, healthy individuals, urine over 12 h, read-out: recovery of the pre-determined dose in urine
Procedure: Dye MM-19 with net charge of 0 was administered to three groups of subjects of healthy individuals. One group was administered a pre-determined dose of 0.5 mg; one group was administered a pre-determined dose of 2.5 mg; and one group was administered a pre-determined dose of 5.0 mg. Clearance of the dye was measured by quantitative analysis of urine samples obtained by catheterization every hour for the first four hours followed by samples obtained every two hours for the next 8 hours.

in vivo = conditions: pig, iv
Procedure: (§2) For in vivo characterization, 40 pmol/g (average 10 nmol) of each dye or conjugate can be injected IV into 250 g Sprague-Dawley rats whose major viscera are surgically exposed. The FLARE™ imaging system can be set to a 760 nm excitation fluence rate of 5 mW/cm2. Simultaneous color video and NIR fluorescence (800 nm) images can be acquired pre-injection, every 1 sec for the first 20 sec then every 1 min for 2 h. Camera acquisition can be held constant (typically 100 msec) and chosen to ensure that all intensity measurements are within the linear range of the 12-bit Orca-AG (Hamamatsu) NIR camera. Blood can be sampled at 0, 1, 2, 5, 10, 15, 30, 60, and 120 min via tail vein. Intensity-time curves for all major organs and tissues can be quantified. The peak fluorescence intensity and time can be determined for each tissue/organ, along with the intensity in each at 1 h post-injection. The experiment can then be repeated in pigs, with measurement of NIR fluorescent intensity of skin and all internal tissues and organs.
(§3) All dyes were injected IV into pigs at a dose of 40 pmol/g (1.6 μmol). […] Excitation fluence rate was 5 mW/cm2. Camera integration time was 200 msec. All NIR fluorescence images had identical normalizations.

[5] = in DMSO; cited from earlier work
[6] = In vivo biodistribution and clearance of dyes in pigs (FLARE NIR fluorescence imaging); conditions: for Blood half-lives: IV 40 pmol/g, given in the pig paragraph, species not restated; for uptake in liver and intestines: pigs, IV 40 pmol/g (1.6 μmol)
Procedure: as §2, §3

Compound | Extinction Coefficient [1] | Peak Absorbance [1] | Peak Emission [1] | QY [1] | Stability at 4 h, 37° C. [2] | clearance / excretion route [3] | equilibration between intravascular and extravascular spaces [3] | liver uptake [3] | non-specific uptake / background retention in tissues and organs [3] | dose excreted ([4]; dose not named in the sentence (groups 0.5, 2.5, 5.0 mg)) | dose excreted ([4]; predetermined dose of 0.5 mg) | dose excreted ([4]; predetermined dose of 2.5 mg) | half-life (in vivo) | QY (calibration standard) [5] | Blood half-lives [6] | uptake in liver and intestines [6] | intestinal signal [3]
CC1(C)C(/C=C/C2=C(Oc3ccc(CCC(=O)[O-])cc3)C(=C/C=C3/N(CCC[N+](C)(C)C)c4ccc(S(=O)(=O)[O-])cc4C3(C)C)/CCC2)=[N+](CCC[N+](C)(C)C)c2ccc(S(=O)(=O)[O-])cc21 [MM-19] | 249,000 M^−1cm^−1 | 773 nm | 790 nm | 13.7% | 95% | rapid renal excretion into urine | rapid equilibration between intravascular and extravascular spaces | no measurable liver uptake | extremely low background retention in normal tissues and organs | > 50% | > 80% | > 60% | 13.4 min | – | – | – | –
CC1(C)C(/C=C/C=C/C=C/C=C2\N(CCCCS(=O)(=O)[O-])c3ccc4ccccc4c3C2(C)C)=[N+](CCCCS(=O)(=O)[O-])c2ccc3ccccc3c21.[Na+] [ICG] | 121,000 M^−1cm^−1 | 807 nm | 822 nm | 9.3% | 96% | eventual excretion into bile | – | rapid uptake by the liver | – | – | – | – | – | 13% | 4.6 min | very high uptake in pig liver and intestines | –
CC1(C)C(/C=C/C2=C(Oc3ccc(S(=O)(=O)O)cc3)C(=C/C=C3/N(CCCCS(=O)(=O)O)c4ccc(S(=O)(=O)[O-])cc4C3(C)C)/CCC2)=[N+](CCCCCC(=O)O)c2ccc(S(=O)(=O)O)cc21 [CW-800] | 237,000 M^−1cm^−1 | 786 nm | 801 nm | 14.2% | 95% | cleared equally by liver and kidneys | – | – | relatively high retention in skin and other major tissues and organs | – | – | – | – | – | 30.6 min | very high uptake in pig liver and intestines | high intestinal signal

— patent US10493169B2, “Use of charge-balanced imaging agents for determining renal function” (Beth Israel Deaconess Medical Center, priority 2009, dated 2019)
